For data set [1], the system named is LAPC4. In words: Antiproliferative activity against human LAPC4 cells assessed as reduction in cell viability at 1 to 5 uM after 72 hrs by MTS assay. The data set is classed as functional, cell-based. To be noted: dose 1-5 µM. For orientation: Tetrazolium dyes change colour on reduction, which living cells bring about.
For a further data set, the system named is BXPC-3. In words: Antiproliferative activity against human BXPC-3 cells assessed as reduction in cell viability at 1 to 5 uM after 72 hrs by MTS assay. The data set is classed as functional, cell-based. The note with it: dose 1-5 µM.
For a further data set, the system named is PC-3. The experiment in a line: Antiproliferative activity against human PC-3 cells assessed as reduction in cell viability after 72 hrs by MTS assay. In kind it is functional, cell-based. The note with it: PC-3, 72 h.
Data set [2] in a line: Stability in human liver s9 fraction assessed as parent compound remaining at 10 uM after 1 hr by LC-MS analysis. The data set is classed as ADME, subcellular. To be noted: read-out: Stabilty.
Data set [3] concerns T47D. In words: Antiproliferative activity against human T47D cells assessed as reduction in cell viability at 1 to 5 uM after 72 hrs by MTS assay. The note with it: dose 1-5 µM. In kind it is functional, cell-based.
The test system of data set [4] is OVCAR-3. The experiment in a line: Antiproliferative activity against human OVCAR-3 cells assessed as reduction in cell viability after 72 hrs by MTS assay. In kind it is functional, cell-based. To be noted: OVCAR-3, 72 h.
Data set [5] relates to MCF7. The experiment in a line: Antiproliferative activity against human MCF7 cells assessed as reduction in cell viability after 72 hrs by MTS assay. The data set is classed as functional, cell-based. The note with it: MCF7, 72 h.
The test system of data set [6] is LAPC4. In words: Antiproliferative activity against human LAPC4 cells assessed as reduction in cell viability after 72 hrs by MTS assay. The data set is classed as functional, cell-based. The note with it: LAPC4, 72 h.
The subject of a further data set is SK-OV-3. In words: Antiproliferative activity against human SK-OV-3 cells assessed as reduction in cell viability at 1 to 5 uM after 72 hrs by MTS assay. The data set is classed as functional, cell-based. To be noted: dose 1-5 µM.
Another data set relates to Hs 766. The experiment in a line: Antiproliferative activity against human Hs 766 cells assessed as reduction in cell viability at 1 to 5 uM after 72 hrs by MTS assay. In kind it is functional, cell-based. The note with it: dose 1-5 µM.
For data set [7], the system named is T47D. The experiment in a line: Antiproliferative activity against human T47D cells assessed as reduction in cell viability after 72 hrs by MTS assay. The data set is classed as functional, cell-based.
In the next data set the test system is Caov-3 cell line. In words: Antiproliferative activity against human Caov-3 cells assessed as reduction in cell viability at 1 to 5 uM after 72 hrs by MTS assay. The note with it: dose 1-5 µM. The data set is classed as functional, cell-based.
For another data set, the system named is LNCaP. In words: Antiproliferative activity against human LNCaP cells assessed as reduction in cell viability after 72 hrs by MTS assay. The data set is classed as functional, cell-based.
Data set [8] deals with OVCAR-3. In words: Antiproliferative activity against human OVCAR-3 cells assessed as reduction in cell viability at 1 to 5 uM after 72 hrs by MTS assay. In kind it is functional, cell-based. The note with it: dose 1-5 µM.
The test system of data set [9] is PANC-1. In words: Antiproliferative activity against human PANC-1 cells assessed as reduction in cell viability after 72 hrs by MTS assay. In kind it is functional, cell-based. To be noted: PANC-1, 72 h.
Data set [10] deals with PANC-1. In words: Antiproliferative activity against human PANC-1 cells assessed as reduction in cell viability at 1 to 5 uM after 72 hrs by MTS assay. In kind it is functional, cell-based. To be noted: dose 1-5 µM.
The subject of data set [11] is MCF7. The experiment in a line: Antiproliferative activity against human MCF7 cells assessed as reduction in cell viability at 1 to 5 uM after 72 hrs by MTS assay. In kind it is functional, cell-based. To be noted: dose 1-5 µM.

Structures are written as SMILES. pIC50: −log10 of the molar value. Activity calls are given as the source filed them. The rule behind the calls is not given here.

These results are taken from ChEMBL document CHEMBL4680140, “Minor chemical modifications of the aminosteroid derivative RM-581 lead to major impact on its anticancer activity, metabolic stability and aqueous solubility” (Eur J Med Chem, 2020).

One may read the pIC50 as the IC50 on a negative log10 scale, so that one unit is a factor of ten.

For the compound `C#C[C@]1(O)CC[C@H]2[C@@H]3CCc4cc(OC)c(CN5CCN(C(=O)[C@@H]6CCCN6C(=O)c6ccc7ccccc7n6)CC5)cc4[C@H]3CC[C@@]21C`, the result with LAPC4 [1], in the data set with BXPC-3, in the data set on T47D [3], in the data set on SK-OV-3, with Hs 766 and with Caov-3 cell line was Active. Further, the outcome in the data set with OVCAR-3 [8], in the data set on PANC-1 [10] and with MCF7 [11] was Active. For the same compound, the pIC50 with PC-3 is 5.77; in the data set on OVCAR-3 [4], 5.30; in the data set on MCF7 [5], 5.64; in the data set with LAPC4 [6], 6.15; in the data set with T47D [7], 6.40; in the data set with LNCaP, 5.89. Further, the pIC50 with PANC-1 [9] is 5.59. Also, the remaining at 1 h, 10 µM in data set [2] came out at 76%.

Consider `C#C[C@]1(O)CC[C@H]2[C@@H]3CCc4cc(C(C)=O)c(N5CCN(C(=O)[C@@H]6CCCN6C(=O)c6ccc7ccccc7n6)CC5)cc4[C@H]3CC[C@@]21C`, for which the outcome with LAPC4 [1], in the data set with BXPC-3, with T47D [3], with SK-OV-3, in the data set with Hs 766 and with Caov-3 cell line was inactive. Besides, the outcome with OVCAR-3 [8], with PANC-1 [10] and in the data set on MCF7 [11] was inactive. Moreover, the remaining at 1 h, 10 µM in [2] was 52%.

With `C#C[C@]1(O)CC[C@H]2[C@@H]3CCc4cc(OC)c(C(=O)N5CCN(C(=O)[C@@H]6CCCN6C(=O)c6ccc7ccccc7n6)CC5)cc4[C@H]3CC[C@@]21C`, the outcome with LAPC4 [1], in the data set on BXPC-3, with T47D [3], with SK-OV-3, in the data set with Hs 766 and with Caov-3 cell line was Active. For the same compound, the result in the data set with OVCAR-3 [8], with PANC-1 [10] and with MCF7 [11] was Active. Further, the pIC50 was 5.77 in the data set with PC-3; 5.28 with OVCAR-3 [4]; 5.66 with MCF7 [5]; 6.30 with LAPC4 [6]; 6.52 in the data set with T47D [7]; 6.10 in the data set on LNCaP. Besides, in the data set with PANC-1 [9], the pIC50 is 5.46. Also, in data set [2], the remaining at 1 h, 10 µM was 52%.

On to `C#Cc1cc2c(cc1N1CCN(C(=O)[C@@H]3CCCN3C(=O)c3ccc4ccccc4n3)CC1)[C@H]1CC[C@@]3(C)[C@@H](CC[C@@]3(O)C#C)[C@@H]1CC2`, for which the remaining at 1 h, 10 µM in data set [2] turned out to be 52%.

`CC(=O)O[C@H]1C(=O)[C@@]2(C)[C@H]([C@H](OC(=O)c3ccccc3)[C@]3(O)C[C@H](OC(=O)[C@H](O)[C@@H](NC(=O)c4ccccc4)c4ccccc4)C(C)=C1C3(C)C)[C@]1(OC(C)=O)CO[C@@H]1C[C@@H]2O`: in the data set on T47D [3], the outcome was Active.

As to `CCc1c2c(nc3ccc(OC(=O)N4CCC(N5CCCCC5)CC4)cc13)-c1cc3c(c(=O)n1C2)COC(=O)[C@]3(O)CC`, the outcome in the data set on T47D [3] was Active.

For `Nc1ccn([C@@H]2O[C@H](CO)[C@@H](O)C2(F)F)c(=O)n1`, the outcome in the data set on T47D [3] was Active.

As to `O=c1[nH]cc(F)c(=O)[nH]1`, in the data set with T47D [3], the result was Active.

Regarding `C#CC1(O)CC[C@H]2[C@@H]3CCc4cc(OC(=O)N(C)C)c(N5CCN(C(=O)[C@@H]6CCCN6C(=O)c6ccc7ccccc7n6)CC5)cc4[C@H]3CC[C@@]21C` (single isomer, unassigned), the result in the data set with LAPC4 [1], with BXPC-3, in the data set on T47D [3], in the data set with SK-OV-3, in the data set on Hs 766 and with Caov-3 cell line was inactive. Further, the result in the data set with OVCAR-3 [8], with PANC-1 [10] and in the data set with MCF7 [11] was inactive. Moreover, the remaining at 1 h, 10 µM in data set [2] was 52%.

In the case of `C#CC1(O)CC[C@H]2[C@@H]3CCc4cc(OC(C)=O)c(N5CCN(C(=O)[C@@H]6CCCN6C(=O)c6ccc7ccccc7n6)CC5)cc4[C@H]3CC[C@@]21C` (single isomer, unassigned), the outcome in the data set with LAPC4 [1], in the data set with BXPC-3, in the data set with T47D [3], in the data set with SK-OV-3, with Hs 766 and in the data set on Caov-3 cell line was Active. Further, the result with OVCAR-3 [8], in the data set with PANC-1 [10] and in the data set on MCF7 [11] was Active. The pIC50 in the data set with PC-3 was 5.85; in the data set with OVCAR-3 [4], 5.41; in the data set with MCF7 [5], 5.85; in the data set on LAPC4 [6], 6.30; in the data set with T47D [7] it was 6.40; in the data set on LNCaP, 6.10. For the same compound, in the data set with PANC-1 [9], the pIC50 was 5.55. In addition, the remaining at 1 h, 10 µM in data set [2] turned out to be 76%.

With `C#CC1(O)CC[C@H]2[C@@H]3CCc4cc(OC(=O)N(CC)CC)c(N5CCN(C(=O)[C@@H]6CCCN6C(=O)c6ccc7ccccc7n6)CC5)cc4[C@H]3CC[C@@]21C` (single isomer, unassigned), the result with LAPC4 [1], in the data set with BXPC-3, in the data set with T47D [3], in the data set on SK-OV-3, in the data set on Hs 766 and in the data set with Caov-3 cell line was inactive. Also, the result in the data set with OVCAR-3 [8], in the data set on PANC-1 [10] and in the data set with MCF7 [11] was inactive. Also, the remaining at 1 h, 10 µM in data set [2] turned out to be 52%.

As for `C#CC1(O)CC[C@H]2[C@@H]3CCc4ccc(N5CCN(C(=O)[C@@H]6CCCN6C(=O)c6ccc7ccccc7n6)CC5)cc4[C@H]3CC[C@@]21C` (single isomer, unassigned), the outcome in the data set on LAPC4 [1], in the data set with BXPC-3, with T47D [3], in the data set on SK-OV-3, in the data set on Hs 766 and in the data set on Caov-3 cell line was inactive. Besides, the outcome in the data set on OVCAR-3 [8], with PANC-1 [10] and in the data set with MCF7 [11] was inactive. Besides, in [2], the remaining at 1 h, 10 µM amounted to 35%.

On to `C#CC1(O)CC[C@H]2[C@@H]3CCc4cc(C(C)O)c(N5CCN(C(=O)[C@@H]6CCCN6C(=O)c6ccc7ccccc7n6)CC5)cc4[C@H]3CC[C@@]21C` (single isomer, unassigned), for which the result with LAPC4 [1], in the data set with BXPC-3, with T47D [3], with SK-OV-3, with Hs 766 and with Caov-3 cell line was inactive. The result in the data set on OVCAR-3 [8], in the data set with PANC-1 [10] and with MCF7 [11] was inactive. Besides, the remaining at 1 h, 10 µM in data set [2] is 35%.

Consider `C#CC1(O)CC[C@H]2[C@@H]3CCc4cc(OS(N)(=O)=O)c(N5CCN(C(=O)[C@@H]6CCCN6C(=O)c6ccc7ccccc7n6)CC5)cc4[C@H]3CC[C@@]21C` (single isomer, unassigned), for which the outcome in the data set with LAPC4 [1], in the data set on BXPC-3, in the data set with T47D [3], in the data set with SK-OV-3, in the data set with Hs 766 and with Caov-3 cell line was Active. Besides, the result in the data set on OVCAR-3 [8], with PANC-1 [10] and in the data set on MCF7 [11] was Active. Further, the pIC50 in the data set with PC-3 is 5.80; with OVCAR-3 [4] it was 5.51; in the data set on MCF7 [5], 5.92; in the data set with LAPC4 [6], 6.52; with T47D [7] it was 6.70; in the data set on LNCaP, 6.05. The pIC50 with PANC-1 [9] was 5.52. For the same compound, in [2], the remaining at 1 h, 10 µM is 35%.

Consider `C#CC1(O)CC[C@H]2[C@@H]3CCc4cc(O)c(N5CCN(C(=O)[C@@H]6CCCN6C(=O)c6ccc7ccccc7n6)CC5)cc4[C@H]3CC[C@@]21C` (single isomer, unassigned), for which the result with LAPC4 [1], in the data set with BXPC-3, in the data set with T47D [3], in the data set with SK-OV-3, in the data set with Hs 766 and in the data set with Caov-3 cell line was Active. Moreover, the outcome in the data set on OVCAR-3 [8], in the data set with PANC-1 [10] and with MCF7 [11] was Active. Further, the pIC50 with PC-3 was 5.85; in the data set on OVCAR-3 [4], 5.36; in the data set with MCF7 [5], 5.85; in the data set on LAPC4 [6] it was 6.40; with T47D [7], 6.30; with LNCaP, 5.96. In the data set on PANC-1 [9], the pIC50 is 5.51. Besides, the remaining at 1 h, 10 µM in data set [2] came out at 35%.
